{
  "source": "patent US20200268864A1",
  "about": "“CANCER VACCINE COMPOSITIONS AND METHODS FOR USING SAME TO TREAT CANCER” (Dana-Farber Cancer Institute, Inc., priority 2017, published 2020)",
  "key": {"PPM tumor bearing mice": {"system": "PPM tumor bearing mice", "assay": "Flow cytometry of tumor-infiltrating immune cells in PPM tumors", "details": "mouse, in vivo", "method": "(§1) Tumors were first mechanically disrupted by chopping, then chemically digested in collagenase buffer (8 mL DMEM, 0.1 mL 1M HEPES, 0.5 mL FBS, 0.2 mL Pen/Strep, 1 m, 10× collagenase/hyaluronidase (Stemcell Technologies), 0.2 mL of 1 mg/mL DNase I (Stemcell Technologies) at 37° C. for 45 min. Single-cell suspensions of spleen and lymph nodes were obtained by mashed through a 70 um strainer using the plunger of a 3 mL or 5 mL syringe. Single cells suspensions were treated with red blood lysis buffer (4 mL NH4Cl+1 mL PBS with 2% calf serum) and washed with FACS buffer. Single cells suspensions were incubated with LIVE/DEAD Fixable Aqua Dead Cell Stain (Life Technologies, Cat # L34965) for 30 min and then blocked with anti-CD16/32 (BioLegend, clone 93) for 20 min on ice. Samples were then incubated with appropriate antibodies for 30 min. on ice. The Foxp3 staining buffer set (eBioscience, Cat #00-5523-00) was applied for intracellular markers staining. For the intracellular cytokine analysis, cells were stimulated with Leukocyte Activation Cocktail (BD Biosciences, Cat #550583) at 37° C. for 5 hours prior to FACS staining. […] Flow cytometry was performed on an LSR II (BD Biosciences) or LSRFortessa™ HTS (BD Biosciences) at the DFCI flow cytometry core facility, and all the data were analyzed using FlowJo software."}, "PBM tumor-bearing mice": {"system": "PBM tumor-bearing mice", "assay": "Flow cytometry of peripheral blood and splenic immune cells", "details": "mouse, in vivo", "method": "Tumors were first mechanically disrupted by chopping, then chemically digested in collagenase buffer (8 mL DMEM, 0.1 mL 1M HEPES, 0.5 mL FBS, 0.2 mL Pen/Strep, 1 m, 10× collagenase/hyaluronidase (Stemcell Technologies), 0.2 mL of 1 mg/mL DNase I (Stemcell Technologies) at 37° C. for 45 min. Single-cell suspensions of spleen and lymph nodes were obtained by mashed through a 70 um strainer using the plunger of a 3 mL or 5 mL syringe. Single cells suspensions were treated with red blood lysis buffer (4 mL NH4Cl+1 mL PBS with 2% calf serum) and washed with FACS buffer. Single cells suspensions were incubated with LIVE/DEAD Fixable Aqua Dead Cell Stain (Life Technologies, Cat # L34965) for 30 min and then blocked with anti-CD16/32 (BioLegend, clone 93) for 20 min on ice. Samples were then incubated with appropriate antibodies for 30 min. on ice. The Foxp3 staining buffer set (eBioscience, Cat #00-5523-00) was applied for intracellular markers staining. For the intracellular cytokine analysis, cells were stimulated with Leukocyte Activation Cocktail (BD Biosciences, Cat #550583) at 37° C. for 5 hours prior to FACS staining. The following antibodies were used in the experiments and were purchased from BioLegend unless otherwise indicated: CD45 (clone 30-F11), TCRβ (clone H57-597), CD4 (clone RM4-5), CD8 (clone 53-6.7), CD44 (clone IM7), CD62L (MEL-14), CD25 (PC61), IFNγ (clone XMG1.2), TNFα(clone MP6-XT22), PD-1 (clone 29F.1A12), Tim-3 (clone RMT3-23), LAG-3 (clone C9B7W), CD11b (clone M1/70), CD11c (clone […]), F4/80 (clone BM8), Gr-1 (clone RB6-BC5), Ly-6C (clone HK1.4), Ly-6G (clone 1A8), MHCII (clone M5/114.15.2), CD80 (clone 16-10A1), CD86 (clone GL-1), MHC1 (clone KH114). FoxP3 (clone FJK-16 s; eBioscience), Phospho-IRF-3 (Ser396) (clone D6O1M, Cell signaling technology), Phospho-TBK1/NAK (Ser172) (clone D52C2, Cell signaling technology), and LIVE/DEAD® Fixable Aqua Dead Cell Stain Kit (Life Technologies Cat L34965). Flow cytometry was performed on an LSR II (BD Biosciences) or LSRFortessa™ HTS (BD Biosciences) at the DFCI flow cytometry core facility, and all the data were analyzed using FlowJo software."}, "[1]": {"system": "STING pathway in PPM tumors", "assay": "STING pathway activation in PPM tumors", "details": "mouse, in vivo", "method": "as §1, with “software. […]” for “software.”"}, "[2]": {"system": "STING pathway in BMDCs co-cultured with PPM cells", "assay": "Co-culture of BMDCs with olaparib-treated PPM tumor cells", "type": "cell-based, mouse", "method": "Blood was obtained by retro-orbital sampling at intermediate time points or experimental end points. Blood cells and plasma/sera were separated by centrifugation at 1,500×g for 5 min. at 4° C. Plasmaisera were sent out to Eve Technologies for cytokine array analysis (Chemokine Array 31-Plex and Mouse Procarta IFN 2-plex Featured Assay). Plasma/sera were applied to ELISA according to manufacturer's instructions. For in vitro experiments, cell culture supernatants were obtained by centrifugation at 1,500×g for 5 min. at 4° C. to remove all debris and cells, and were then subjected to ELISA analysis. IFN-β was detected using the LEGEND MAX™ Mouse IFN-β ELISA Kit (BioLegend).\nBone marrow cells were isolated from FVB/NJ mice and cultured in RPMI-1640 containing 10% FBS and 20 ng/ml GM-CSF. BMDCs (bone marrow derived dendritic cells) were harvested for in vitro co-culture assay on day 7 to day 10. About 3×10^5 PBM or PPM tumor cells were cultured in a 6-well plate for 24 hr. and then treated with DMSO or olaparib. After 24 hr incubation with DMSO, olaparib, or olaparib in combination with other drugs (cell cycle inhibitor or apoptosis inhibitor), drugs were removed and tumor cells were washed twice with PBS. BMDCs were added and co-cultured with PBM or PPM cells at a ratio of 1:1 in 1.5 ml culture media in the presence of GM-CSF (20 ng/ml) and lipofectamine (2 μl) for 24 hr. […]"}, "[3]": {"system": "Brca1-proficient and Brca1-deficient tumor cells", "assay": "Measurement of IC50 value in tumor cells (MTS, 72 h)", "type": "cell-based", "details": "three pairs of models; for gemcitabine except PPM and PBM cells", "method": "Tumor cells were seeded in 96-well plates at a density of 1000-3000/well and allowed to adhere overnight. Cells were then exposed to appropriate concentrations of therapeutic agents (or vehicle control) with continuous exposure for 72 h. Growth inhibition was measured by CellTiter Aqueous MTS reagent from Promega by comparing the absorbance at 490 nm of drug-treated cells to that of untreated controls set at 100%. 1C50 values were calculated using non-linear regression model (logarithmic inhibitor vs. normalized response-variable slope) in Graphpad Prism 7."}},
  "data": [
    {"smiles": "O=C(c1cc(Cc2n[nH]c(=O)c3ccccc23)ccc1F)N1CCN(C(=O)C2CC2)CC1", "note": "[olaparib, Olaparib]", "values": [
      {"measurement": "intratumoral immune responses in PPM tumor bearing mice", "setting": "PPM tumor bearing mice", "value": "not found"},
      {"measurement": "IFN gamma and TNF alpha production by peripheral blood CD8+ T cells", "setting": "PBM tumor-bearing mice", "value": "enhanced"},
      {"measurement": "expression of PD-1, Tim3, and Lag3 co-inhibitory receptors on splenic CD8+ T cells", "setting": "PBM tumor-bearing mice", "value": "reduced"},
      {"measurement": "gMDSC and mMDSC in the peripheral blood", "setting": "PBM tumor-bearing mice", "value": "decreased"},
      {"measurement": "number of CD8+ T cells in the spleens", "setting": "PBM tumor-bearing mice", "value": "significantly increased"},
      {"measurement": "number of MDSCs in the spleens", "setting": "PBM tumor-bearing mice", "value": "significantly reduced"},
      {"measurement": "hallmarks of STING pathway activation in PPM tumors", "setting": "[1]", "value": "not observed"},
      {"measurement": "STING-dependent activation of BMDCs (IFNβ and CXCL10 expression)", "setting": "[2]", "value": "not observed"},
      {"measurement": "IC50 values, Brca1-deficient lines in comparison to Brca1-proficient counterparts", "setting": "[3]", "value": "much more sensitive"}
    ]}
  ]
}
